In patent US10898498B2, “Slow release oxysterols and methods of use” (Warsaw Orthopedic, Inc., priority 2015, dated 2021):
“Also recorded” adds a separate entry of the source.

Key:
[1] = test system: multipotent mesenchymal cells such as M2-10B4 (M2) marrow stromal cells and C3H10T1/2 embryonic fibroblasts; conditions: M2-10B4 marrow stromal cells and C3H10T1/2 embryonic fibroblasts; cited from earlier work
[2] = test system: rat two-level spine model (posterolateral space, L3-L5); assay: Rat two-level posterolateral spine fusion model, implants placed bilaterally; radiographs and manual palpation; type: in vivo; conditions: for bone growth / bridging bone on radiographs: 4-week and 8-week timepoints; for spinal fusion by manual palpation evaluation of the spine segments: 8 weeks; for fusion observed (share of rat spines fused, manual palpation): matrix of Oxy133, collagen and ceramic wetted with sterile water, bilateral, 8-week sacrifice, 5/5 spines
Protocol: FIG. 6 illustrates uses of a formulation of malleable implants having 20 mg of Oxy133 on each side of the implant, in accordance with the malleable implants described herein. […] A dry composition of a matrix containing Oxy133, collagen and ceramic as described herein was prepared and wetted with sterile water to be implanted in rat spines as shown in FIG. 6. The wetted matrix was cut in half with a razor blade to yield two halves. The two implants were molded into cylindrical shapes prior to insertion and were positioned bilaterally in the posterolateral space of each test subject. Each implant contained 20 mg Oxy133. Radiographs were taken roughly 10 minutes after the procedure, 4 weeks after the procedure, and 8 weeks after the procedure. […] Fusion was tested at 8-week sacrifice by manual palpation. […] A dry composition of a matrix containing Oxy133, collagen and ceramic as described herein was prepared and wetted with sterile water to be implanted in rat spines as shown in FIG. 6. The wetted matrix was cut in half with a razor blade to yield two halves. The two implants were molded into cylindrical shapes prior to insertion and were positioned bilaterally in the posterolateral space of each test subject. Each implant contained 125 mg Oxy133. Radiographs were taken roughly 10 minutes after the procedure, 4 weeks after the procedure, and 8 weeks after the procedure. […] Fusion was tested at 8-week sacrifice by manual palpation.

## CC(C)CC[C@@H](O)[C@@H](C)[C@H]1CC[C@H]2[C@@H]3CC=C4C[C@@H](O)CC[C@]4(C)[C@H]3CC[C@]12C [22(R)-hydroxycholesterol]
[1]
  osteogenic differentiation: induce osteogenic differentiation

## CCCCCC[C@](C)(O)[C@H]1CC[C@H]2[C@@H]3C[C@H](O)[C@H]4C[C@@H](O)CC[C@]4(C)[C@H]3CC[C@@]21C [Oxy133, (3S,5S,6S,8R,9S,10R,13S,14S,17S)-17-((S)-2-hydroxyoctan-2-yl)-10,13-dimethylhexadecahydro-1H-cyclopenta[a]phenanthrene-3,6-diol]
[2]; each implant 20 mg Oxy133
  bone growth / bridging bone on radiographs: Bone growth in rat test subjects can be seen; also recorded: promoted bridging bone across the transverse processes of L3-L5
  spinal fusion by manual palpation evaluation of the spine segments: yielded spinal fusion; also recorded: limited flexibility
  fusion observed (share of rat spines fused, manual palpation): 100%
[2]; each implant 125 mg Oxy133
  bone growth / bridging bone on radiographs: Bone growth in rat test subjects can be seen; also recorded: promoted bridging bone across the transverse processes of L3-L5
  spinal fusion by manual palpation evaluation of the spine segments: yielded spinal fusion; also recorded: limited flexibility
  fusion observed (share of rat spines fused, manual palpation): 100%

## CC(C)CCC[C@](C)(O)[C@H]1CC[C@H]2[C@@H]3CC=C4C[C@@H](O)CC[C@]4(C)[C@H]3CC[C@@]21C [20(S)-hydroxycholesterol]
[1]
  osteogenic differentiation: induce osteogenic differentiation

## CC(C)CC[C@H](O)[C@@H](C)[C@H]1CC[C@H]2[C@@H]3CC=C4C[C@@H](O)CC[C@]4(C)[C@H]3CC[C@]12C [22(S)-hydroxycholesterol]
[1]
  osteogenic differentiation: induce osteogenic differentiation
